Source: US20190274981A1, “OLEANOLIC ACID ENHANCES MESENCHYMAL STROMAL CELL OSTEOGENIC POTENTIAL BY INHIBITION OF NOTCH SIGNALING” (Board of Supervisors of Louisiana State University and …, priority 2018, published 2019)
Entries after “also recorded” stand apart in the source; their conditions may differ.

Legend:
MSCs [1] = test: MSC osteogenic differentiation assay, real time RT-PCR of osteogenic markers; format: cell-based, human; conditions: OA 10 and 20 μM, seven days, vs DMSO treated control MSCs
Protocol: (§1) Cell culture and treatment: The human MSCs were purchased from Lonza. Oleanolic acid was obtained from Sigma-Aldrich (Aldrich-5504). A 100 mM solution of OA was prepared in dimethyl sulfoxide (DMSO), and all test concentrations were prepared by diluting the stock solution in cell culture medium. […] After expansion, cells were exposed to media containing OA and/or BMP2 for certain days. […] At the end, cells were harvested at different time points for analyses as described below.
(§2) MSC osteogenic differentiation assay: Osteogenic differentiation assays of MSCs were performed using the Osteogenic differentiation bulletKit® (Lonza). MSCs were cultured at 200,000 cells/well in 6-well plates to confluence. Stem cell growth media was then replaced with osteogenic media supplied with or without OA and BMP2. After seven days of culture, alkaline phosphatase (ALP) staining, RNA, and protein isolation were performed as described in our published protocols.
(§3) Real time RT-PCR: cDNA was synthesized from 1 μg total RNA using the SuperScript III reverse transcriptase kit (Invitrogen) in a final volume of 20 μl. Primers were designed with the IDT SCI primer design tool (Integrated DNA Technologies, San Diego, Calif.). RT-PCR experiments were performed with a Bio-Rad C1000 thermal cycler (Bio-Rad, Hercules, Calif.), and real-time PCR experiments were performed with an ABI prism 7500 (Applied Biosystems, Grand Island, N.Y.) in triplicate. Sequence for each primer pair were: Hes1, forward primer 5′-[…]-3′, reverse primer 5′-[…]-3′; ALP, forward primer 5′-[…]-3′, reverse primer 5′-[…] […]-3′; Runx2, forward primer 5′-[…]-3′, reverse primer 5′-[…]-3′; Osteocalcin (OC), forward primer 5′-[…]-3′, reverse primer 5′-[…]-3′; Osteopontin (OPN), forward primer 5′-[…]-3′, reverse primer 5′-[…]-3′; Type I collagen (Col1a1), forward primer 5′-[…]-3′, reverse primer 5′-[…]-3′; β-actin, forward primer 5′-[…]-3′; reverse primer 5′-[…] […]-3′. Samples were analyzed in triplicate, and the raw data consisted of PCR cycle numbers required to reach a fluorescence threshold level. The relative expression level of target genes was normalized to (β-actin gene.

Notch signaling = test: Notch responsive RBPJ-Luc luciferase assay; format: cell-based, human; conditions: MSCs, 0, 10 μM and 20 μM OA, 48 hours
Protocol: Luciferase assay: 80% confluence MSCs were transfected with Notch responsive RBPJ-Luc and SV40-Renilla-Luc (Promega) in the presence of Lipofectamine 2000 (Invitrogen) followed by OA treatment. At 24 hours after transfection and treatment, lysates were analyzed with a Dual Luciferase Assay Kit (Promega).
The inventor has identified the RBPjk-dependent Notch pathway as an important inducer of MSC proliferation, and an inhibitor of MSC differentiation during mouse limb-bud and postnatal bone development. In this study, the inventor further tested whether Notch signaling is also involved in OA-mediated osteogenesis. To do so, MSCs were first transfected with the RBPjk-dependent NOTCH-responsive luciferase reporter, and then cultured in medium containing 0, 10 μM and 20 μM OA for 48 hours. […] Moreover, down-regulation of Notch target gene Hes1 expression was also observed in OA treated MSCs (FIG. 1E), which further confirmed the inhibitory effect of OA on Notch signaling.

MSCs [2] = test: Lentivirus-mediated Notch activation (NICD1 overexpression) in OA treated MSCs; format: cell-based, human
normal cells = conditions: cited from earlier work
MSCs [3] = test: Cell viability assay (MTT); format: cell-based, human; conditions: 12 hours
Protocol: as §1
Cell viability assay: MSC viability was measured using MTT (3-(4, 5-dimethylthiazole-2-yl)-2, 5-diphenyl tetrazolium bromide) based in vitro toxicology assay kit (Sigma, St. Louis, Mo., USA). Briefly, cells were seeded in 96-well plates. After growing into 50-60% confluence, cells were exposed to various concentrations of OA for 12 hours, then the supernatant was discarded, and cells were treated with 0.5 mg/ml MTT staining solution for another four hours. After incubation, the supernatant was removed and 50 μl of solubilization buffer provided by the Sigma kit with 0.5% DMSO was added. DMSO was added to ensure total solubility of the formazan crystals. Plates were shaken for two minutes, and the absorbance recorded at 590 nm on an automated microtiter plate reader. The percent viability was expressed as a percentage of that in the vehicle control (with subtraction of background absorbance).

MSC/HA pellet = test: In vivo ectopic bone-formation assay; conditions: MSCs with 20 μM OA, subcutaneous in nude mice, six weeks
Protocol: In vivo ectopic bone-formation assay: All animal studies were reviewed and approved by the Animal Ethics Committee of Louisiana State University Health Sciences Center. 1.0×10^6 total MSCs were re-suspended in 80 μl of MSC growth media containing 20 μM OA and gently mixed with 50 mg of hydroxyapatite (HA) powder (Himed). The composites were then centrifuged for two minutes at 200 rpm to form a MSC/HA pellet. For ectopic bone formation surgery, ten 8-week-old NOD.CB17^−Prkdescid/J mice (Charles River) (up to 2 implants for each animal) were anesthetized and the dorsal skin was cleaned with 70% ethanol. Two incisions of ˜1 cm in length were performed on the opposite flanks of the back, and then a pocket was formed by blunt dissection. Finally the MSC/HA pellets were implanted. Six weeks post-surgery, transplanted BMSC/HA pellets were harvested for gross observation and Masson's trichrome staining. […] All animal work was performed in accordance with institution approved guidelines.
MSCs were first dissolved in PBS containing 20 μM OA, then mixed with HA ceramic powder, and centrifuged into MSC/HA pellets prior to subcutaneous transplantation into nude mice. After six weeks of growth and differentiation, the pellets were harvested for gross observation, Masson's trichrome and immunohistochemistry staining (FIG. 4A).

NICD = test: Western blot of NICD; format: cell-based, human; conditions: OA treated MSCs, day 3
MSCs [4] = test: MSC osteogenic differentiation assay, ALP staining; format: cell-based, human
Protocol: Cell culture and treatment: The human MSCs were purchased from Lonza. Oleanolic acid was obtained from Sigma-Aldrich (Aldrich-5504). A 100 mM solution of OA was prepared in dimethyl sulfoxide (DMSO), and all test concentrations were prepared by diluting the stock solution in cell culture medium. […] At the end, cells were harvested at different time points for analyses as described below.
as §2, with “Stem cell growth media was then replaced with osteogenic media supplied with or without OA and BMP2.” left out

Notch target gene Hes1 = test: Real time PCR of Notch target gene Hes1; format: cell-based, human; conditions: OA treated MSCs, day 7, vs DMSO treated control
Protocol: as §3

phospho-smad1/5/8 = test: RT-PCR and western blot of phospho-smad1/5/8; format: cell-based, human; conditions: MSCs
Protocol: Real time RT-PCR: cDNA was synthesized from 1 μg total RNA using the SuperScript III reverse transcriptase kit (Invitrogen) in a final volume of 20 μl. Primers were designed with the IDT SCI primer design tool (Integrated DNA Technologies, San Diego, Calif.). RT-PCR experiments were performed with a Bio-Rad C1000 thermal cycler (Bio-Rad, Hercules, Calif.), and real-time PCR experiments were performed with an ABI prism 7500 (Applied Biosystems, Grand Island, N.Y.) in triplicate. […] Samples were analyzed in triplicate, and the raw data consisted of PCR cycle numbers required to reach a fluorescence threshold level. The relative expression level of target genes was normalized to (β-actin gene.
Western blot analysis: MSCs cultured with or without OA and BMP2 treatment were lysed in RIPA buffer (10 mM Tris-HCI, 1 mM EDTA, 1 sodium dodecyl sulfate [SDS], 1% NP-40, 1:100 proteinase inhibitor cocktail, 50 mM β-glycerophosphate, 50 mM sodium fluoride). The samples were separated on a 10% SDS polyacrylamide gel and transferred to polyvinylidene difluoride (PVDF) membranes with a semi-dry transfer apparatus (Bio-Rad). The membranes were blotted with 5% dehydrated milk for two hours, and then, incubated with primary antibodies overnight. […]

Structure (SMILES): CC1(C)CC[C@]2(C(=O)O)CC[C@]3(C)C(=CC[C@@H]4[C@@]5(C)CC[C@H](O)C(C)(C)[C@@H]5CC[C@]43C)[C@@H]2C1 [OA, (3β)-3-hydroxyolean-12-en-28-oic acid]
- ALP expression (early osteogenic marker) (MSCs [1]): enhanced expression
- Col1a1 expression (early osteogenic marker) (MSCs [1]): enhanced expression
- OC expression (later osteogenic marker) (MSCs [1]): remained unchanged
- OPN expression (later osteogenic marker) (MSCs [1]): remained unchanged
- Runx2 expression (early osteogenic marker) (MSCs [1]): enhanced expression
- Notch-responsive luciferase activity (Notch signaling): inhibited Notch-responsive luciferase activity dose dependently
- OA-induced ALP staining under overexpression of NICD1 (MSCs [2]; NICD1 lentivirus infected MSCs, OA, day 7): totally blocked
- expression of ALP, Runx2 and Col1a1 in Notch activated MSCs with OA (MSCs [2]; NICD1 lentivirus, RT-PCR, day 7, vs control or OA treated MSCs): significantly reduced
- cytotoxicity to normal cells (normal cells): no significant cytotoxicity
- cell death in cell viability assay (MSCs [3]; OA 10 μM): no cell death
- cell death in cell viability assay (MSCs [3]; OA 20 μM): no cell death
- cell death in cell viability assay (MSCs [3]; OA 30 μM): significant cell death
- increase of type I collagen bone matrix (blue) in the pellet area vs untreated MSCs (MSC/HA pellet): approximately 4 fold
- pellet area stained blue (type I collagen bone matrix, Masson's trichrome) (MSC/HA pellet): 30%
- expression of NICD (western blot) (NICD): significantly reduced
- ALP activity (ALP staining) (MSCs [4]; OA 20 μM and/or BMP2 200 ng/ml, seven days, osteogenic medium): significant increase; also recorded: relative weak ALP staining
- ALP staining (MSC osteogenic differentiation) (MSCs [4]; OA 10 and 20 μM, seven days): dose dependent increase
- osteogenic nodule formation (MSCs [4]; OA treated MSCs at day 7, maximal staining at 20 μM): increase in osteogenic nodule formation
- Notch target gene Hes1 expression (Notch target gene Hes1): down-regulation
- gene expression of p-smad1/5/8 (RT-PCR) (phospho-smad1/5/8; day 7, OA 20 μM, BMP2 200 ng/ml): did not show any effects
- p-smad1/5/8 expression (western blot) (phospho-smad1/5/8; day 7, control vs OA treated): no significant difference
